Results published in patent US20170100447A1, “COMPOSITIONS BASED ON PLANT EXTRACTS FOR INHIBITION OF THE 5-ALPHA REDUCTASE” (BIONAP S.R.L., priority 2014, published 2017).

Tested on: immortalized human sebocytes (SZ95 sebocyte line)
Test: MTT assay on testosterone-stimulated sebocytes
Format: cell-based
Details: testosterone 10^−6 M; 9 days
Experimental: The line of immortalized human sebocytes (SZ95 sebocyte line) has been cultivated in medium Sebomed (Biochrom) supplemented with fetal calf serum 10%, […] of recombining human epidermal growth factor, 1 mM Ca^2+ and 50 μg/ml gentamicin, in an atmosphere of CO2 5% at 37° C. The SZ95 cells have been subsequently plated on wells for the MTT assays and, after 24 hours of incubation in an atmosphere of CO2 5% at 37° C., have been treated with a new culture medium containing testosterone in a final concentration of 10^−6 M and the extracts, according to the indications reported in Table 1.
The cellular vitality has been assessed for each sample after 9 days of treatment through colorimetric MTT assay (according to the protocol as above described) and expressed in a percentage value with respect to control (0%) and to the treatment with testosterone (test=100%). Each experiment has been carried out in triplicate.

C[C@]12CC[C@H]3[C@@H](CCC4=CC(=O)CC[C@@]43C)[C@@H]1CC[C@@H]2O [testosterone]
effect of testosterone on cellular proliferation of SZ95 sebocytes: induces in these cells an increase of cellular proliferation
